# From patent US5153219A, “Thiocarbamate sulfoxide composition for deterring ethanol ingestion” (Faiman; Morris D., priority 1991, dated 1992)
# Where two headings read alike, the source gives them in different places.
# Tests used:
# [1] = test system: liver mitochondrial low Km ALDH; conditions: Hart et al., cited from earlier work; for dose at which 50% ALDH inhibition (ID50) occurred: intraperitoneal (IP) administration
# [2] = target: T1, rat liver mitochondrial low Km ALDH (Rattus norvegicus, UniProt P11884); assay: In vitro inhibition of rat liver mitochondrial low Km ALDH (isolated mitochondria incubation); assay type: biochemical
# T1 construct: Mitochondria were isolated from the liver of untreated rats; from tissue; host or cells: liver mitochondria of male Sprague-Dawley derived rats
# T1 sequence (P11884 20-519): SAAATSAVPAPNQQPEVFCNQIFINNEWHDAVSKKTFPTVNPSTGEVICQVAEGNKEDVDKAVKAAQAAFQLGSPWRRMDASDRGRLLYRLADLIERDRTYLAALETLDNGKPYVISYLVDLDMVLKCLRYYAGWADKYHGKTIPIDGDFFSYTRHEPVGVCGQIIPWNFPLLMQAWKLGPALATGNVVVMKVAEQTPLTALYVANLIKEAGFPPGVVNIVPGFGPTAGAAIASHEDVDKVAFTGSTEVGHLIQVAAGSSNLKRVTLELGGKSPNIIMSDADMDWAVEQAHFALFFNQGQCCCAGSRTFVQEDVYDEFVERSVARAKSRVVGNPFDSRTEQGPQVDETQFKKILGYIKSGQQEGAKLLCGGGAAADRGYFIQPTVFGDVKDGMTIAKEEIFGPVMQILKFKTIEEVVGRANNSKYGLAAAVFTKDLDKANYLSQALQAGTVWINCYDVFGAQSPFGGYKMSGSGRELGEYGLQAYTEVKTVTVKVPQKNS
# Procedure: 1. Drug Concentration. Concentrations of DETC-Me sulfoxide ("DETC-Me SO") studied were 0.2 μM, 2.0 μM, 20 μM and 200 μM. Concentrations of DDTC-Me SO studied were 0.5 μM, 2.5 μM, 10 μM, 25 μM, 50 μM and 100 μM.
# 2. Animal Liver Preparation. Male Sprague-Dawley derived rats weighing 200-400 g were anesthetized with carbon dioxide and then decapitated. The livers from untreated rats were homogenized in 0.25M sucrose and differential centrifugation carried out to isolate the mitochondrial fraction. The mitochodria were solubilized with sodium deoxycholate, and mitochondrial low Km ALDH activity determined by the method of S.O.C. Tottmar et al., Biochem. J., 135, 577 (1973).
# 3. In Vitro Incubation. Mitochondria were isolated from the liver of untreated rats as described in section (2) and resuspended in 0.1M phosphate buffer (pH=7.4). Incubations contained 2 mg of mitochondrial protein, to which was added DETC-Me SO or DDTC-Me SO in the concentrations described above. The DETC-Me SO or DDTC-Me SO was dissolved in ethanol and the incubations carried out for one hour. Control incubations contained ethanol alone.
# 4. Aldehyde Dehydrogenase Analysis. At the end of the incubation, the mitochondria were isolated by centrifugation, resuspended in 0.25M sucrose buffer and solubilized with deoxycholate. Low Km ALDH activity was determined by the method of S.O.C. Tottmar et al., cited above.
# [3] = target: T1, rat liver mitochondrial low Km ALDH; assay: Liver aldehyde dehydrogenase determination in vivo after dosing rats; conditions: for in vivo ALDH inhibition relative to comparators (in words): versus DETC-Me, disulfiram or other disulfiram metabolites; for ED50: rat, 8 h, read-out: dose required to inhibit 50% of the low Km ALDH
# Procedure: 1. Drug Doses. Doses of DETC-Me SO studied were 1.3 mg/kg, 2.6 mg/kg, 5.2 mg/kg, 10.3 mg/kg and 20.6 mg/kg.
# 2. Animals. Male Sprague Dawley derived rats weighing 200-400 g were used. The rats were bred from a resident colony maintained in the Animals Care Unit at the University of Kansas. Rats were maintained on a 12-hour light-dark cycle with access to food and water ad lib until the night before an experiment, at which time food was removed. Animals were fasted for 12 hours prior to drug administration.
# 3. Timing. In these in vivo studies, rats were fasted 12 hours before beginning the experiment. All experiments were carried out in the morning. Rats were treated with the doses of DETC-Me SO or DETC-Me described above, which were dissolved in polyethylene glycol 200. Eight hours later, the rats were anesthetized with carbon dioxide and then decapitated. The liver was quickly removed and the low Km aldehyde dehydrogenase determined. Each data point on FIG. 4 represents an average of four rats. Control rats were treated with […] only, and each control data point also represents an average of four rats.
# 4. Aldehyde Dehydrogenase Determination. The liver from drug-treated and control rats was homogenized in 0.25M sucrose and differential centrifugation was carried out to isolate the mitochondrial fraction. The mitochondria were solubilized with sodium deoxycholate, and mitochondrial low Km and total (high and low) aldehyde dehydrogenase activity determined by the method of S.O.C. Tottmar et al., cited above.
# [4] = Plasma acetaldehyde determination after ethanol challenge; assay type: in vivo, rat; conditions: male rats
# Procedure: Rats maintained as described in Ex. 4, fasted for 18 hours, were given 10.3 mg/kg of the DETC-Me SO intraperitoneally, dissolved in polyethylene glycol 200 and then challenged eight hours later with a dose of ethanol (1 g/kg; 20% v/v) also administered intraperitoneally. The rats were anesthetized with phenobarbital 30 minutes after alcohol administration and blood was taken by aortic puncture, being drawn into a heparinized syringe. Plasma acetaldehyde was determined by the method of C.O.P. Eriksson et al., Anal. Biochem., 80, 116 (1977). Plasma concentrations were determined based on a standard curve obtained with known concentrations of acetaldehyde. Control rats were treated with 1 ml/kg of polyethylene glycol 200.
# [5] = test system: liver mitochondrial low Km ALDH; conditions: Hart et al.; cited from earlier work
compound,measurement,setting,value
"CCN(CC)C(=S)SC [DDTC-Me, diethyldithiocarbamate-methyl ester]",dose at which 50% ALDH inhibition (ID50) occurred,[1],15.5 mg/kg
"CCN(CC)C(=O)[S+](C)[O-] (stereo not drawn) [DETC-Me SO, S-Methyl-N,N-Diethylthiolcarbamate Sulfoxide]",in vitro activity as inhibitor of low Km ALDH (in words),[2],extremely potent inhibitor
same,in vitro activity as inhibitor of low Km ALDH (in words),[2]; listed as DETC-Me sulfoxide,active in vitro
same,in vivo ALDH inhibition relative to comparators (in words),[3],substantially more potent
same,in vivo ALDH inhibition relative to comparators (in words),[3]; listed as DETC-Me sulfoxide,about twice as effective
same,ED50,"[3]; male rats, intraperitoneal (IP), liver taken eight hours after dosing, FIG. 4",3.6 mg/kg
same,plasma acetaldehyde,"[4]; 10.3 mg/kg IP in polyethylene glycol 200, then 1 g/kg ethanol (20% v/v) IP, FIG. 5",approximately 900 μM
same,effect on plasma acetaldehyde after an ethanol challenge (in words),"[4]; 10.3 mg/kg IP, 1 g/kg ethanol IP",markedly increase plasma acetaldehyde
"CCN(CC)C(=O)SC [DETC-Me, S-Methyl-N,N-Diethylthiolcarbamate]",inhibition at 200 µM,"[2]; 1 h, read-out: inhibition of rat liver mitochondrial low Km ALDH",8%
same,in vitro activity as inhibitor of low Km ALDH (in words),[2],not
same,ED50,[3]; ip,6.5 mg/kg
same,"potency as inhibitor of liver mitochondrial low Km ALDH relative to DDTC-Me, DDTC or disulfiram (in words)",[1],more potent inhibitor
same,dose at which 50% ALDH inhibition (ID50) occurred,[1],6.5 mg/kg
same,in vitro inhibition of liver mitochondrial low Km ALDH (in words),[5],not an effective in vitro inhibitor
"CCN(CC)C(=S)SSC(=S)N(CC)CC [disulfiram, tetraethylthiuram disulfide]",dose at which 50% ALDH inhibition (ID50) occurred,[1],56.2 mg/kg
